What was measured:
Kv1.3 channel = Kv1.3 channel (Homo sapiens, UniProt P22001); conditions: cited from earlier work
human Kv1.3 ion channel = biological target: T1, human Kv1.3 ion channel (Homo sapiens, UniProt P22001); assay: Inhibition of Kv1.3 currents, planar patch clamp; assay type: cell-based; conditions: Human Jurkat cells or CHO cells stably transfected with hKv1.3; averaged dose response data from 3 or more cells
T1 construct: Human Jurkat cells (which endogenously express hKv1.3) or Chinese Hamster Ovary (CHO) cells stably transfected with hKv1.3 were used; endogenous in cells; host or cells: Human Jurkat cells (endogenous) or CHO cells stably transfected with hKv1.3
T1 sequence (P22001 whole entry): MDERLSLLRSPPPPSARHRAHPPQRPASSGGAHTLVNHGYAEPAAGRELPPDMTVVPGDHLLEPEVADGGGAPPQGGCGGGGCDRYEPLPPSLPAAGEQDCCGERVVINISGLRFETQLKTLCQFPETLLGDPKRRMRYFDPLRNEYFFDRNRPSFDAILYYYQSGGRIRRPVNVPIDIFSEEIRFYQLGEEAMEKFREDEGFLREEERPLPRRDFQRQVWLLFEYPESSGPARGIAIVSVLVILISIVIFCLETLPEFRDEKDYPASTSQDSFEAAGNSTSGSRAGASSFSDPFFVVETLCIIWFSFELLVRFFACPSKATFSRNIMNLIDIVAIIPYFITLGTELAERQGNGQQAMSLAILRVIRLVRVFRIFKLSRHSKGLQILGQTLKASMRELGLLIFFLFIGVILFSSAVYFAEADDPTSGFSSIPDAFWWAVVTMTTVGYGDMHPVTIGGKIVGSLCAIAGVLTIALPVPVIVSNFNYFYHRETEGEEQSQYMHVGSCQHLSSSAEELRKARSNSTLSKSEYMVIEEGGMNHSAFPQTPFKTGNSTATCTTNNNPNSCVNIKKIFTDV
Description: Potency of compounds to inhibit the human Kv1.3 ion channel was determined as follows:
(§1) EC50 values for inhibition of Kv1.3 currents were determined by the method according to Schmitz et al (2005) Molecular Pharmacology 68, 1254-1270 with the following differences: • 1. Human Jurkat cells (which endogenously express hKv1.3) or Chinese Hamster Ovary (CHO) cells stably transfected with hKv1.3 were used in place of transfected rat L929 cells. • 2. All electrophysiology was performed using planar patch clamp (Port-A-Patch, Nanion Technologies Gmbh, Munich) in contrast to conventional patch clamp. • 3. EC50 values shown were determined from averaged dose response data obtained from 3 or more cells.

hKv1.1 = biological target: T2, hKv1.1 (Homo sapiens, UniProt Q09470); assay: Inhibition of Kv1.1 currents, planar patch clamp (selectivity); assay type: cell-based; conditions: CHO cells stably transfected with hKv1.1
T2 construct: expressed in transfected cells; host or cells: CHO cells, stably transfected
T2 sequence (Q09470 whole entry): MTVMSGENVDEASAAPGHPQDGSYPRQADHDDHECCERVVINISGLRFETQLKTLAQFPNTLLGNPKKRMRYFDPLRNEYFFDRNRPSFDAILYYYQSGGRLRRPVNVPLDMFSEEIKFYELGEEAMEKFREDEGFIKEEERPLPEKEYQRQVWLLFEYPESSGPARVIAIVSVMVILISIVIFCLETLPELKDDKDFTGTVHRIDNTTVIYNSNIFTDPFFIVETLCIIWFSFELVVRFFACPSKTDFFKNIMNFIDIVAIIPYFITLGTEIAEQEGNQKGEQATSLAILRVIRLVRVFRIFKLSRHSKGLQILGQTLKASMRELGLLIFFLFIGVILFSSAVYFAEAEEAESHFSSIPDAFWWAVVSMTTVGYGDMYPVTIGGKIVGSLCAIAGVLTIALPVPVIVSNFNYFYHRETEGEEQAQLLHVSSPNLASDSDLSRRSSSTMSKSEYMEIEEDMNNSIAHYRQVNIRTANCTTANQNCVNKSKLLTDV
Description: as §1, with “Kv1.1 and Kv1.5” for “Kv1.3”, “1.” for “1. Human Jurkat cells (which endogenously express hKv1.3) or”, “hKv1.1 and hKv1.5” for “hKv1.3”

hKv1.5 = hKv1.5 (Homo sapiens, UniProt P22460); assay: Inhibition of Kv1.5 currents, planar patch clamp (selectivity); assay type: cell-based; conditions: CHO cells stably transfected with hKv1.5
Sequence of hKv1.5 (P22460 whole entry): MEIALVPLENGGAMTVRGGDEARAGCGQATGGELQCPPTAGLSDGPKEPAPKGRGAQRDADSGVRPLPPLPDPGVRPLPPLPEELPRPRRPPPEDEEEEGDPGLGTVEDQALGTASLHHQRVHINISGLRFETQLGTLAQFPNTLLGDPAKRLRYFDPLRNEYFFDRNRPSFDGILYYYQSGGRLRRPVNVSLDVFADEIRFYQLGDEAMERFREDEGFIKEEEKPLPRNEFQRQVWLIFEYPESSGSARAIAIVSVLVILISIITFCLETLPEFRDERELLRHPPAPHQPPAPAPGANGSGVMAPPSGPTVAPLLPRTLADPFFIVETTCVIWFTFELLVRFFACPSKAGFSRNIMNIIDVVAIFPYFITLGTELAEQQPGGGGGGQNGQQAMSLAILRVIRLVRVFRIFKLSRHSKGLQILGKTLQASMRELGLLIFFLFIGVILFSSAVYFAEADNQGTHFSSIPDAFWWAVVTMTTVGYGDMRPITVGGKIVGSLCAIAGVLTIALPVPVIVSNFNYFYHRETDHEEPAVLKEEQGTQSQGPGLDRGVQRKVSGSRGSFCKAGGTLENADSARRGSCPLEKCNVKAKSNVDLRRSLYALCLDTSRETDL
Description: as §1, with “Kv1.1 and Kv1.5” for “Kv1.3”, “1.” for “1. Human Jurkat cells (which endogenously express hKv1.3) or”, “hKv1.1 and hKv1.5” for “hKv1.3”

Sequence of Kv1.3 channel (P22001 whole entry): as the sequence (P22001 whole entry) above

Q: For `COc1c2occc2cc2ccc(=O)oc12` [8-Methoxypsoralen (8-MOP), 8-Methoxypsoralen], which “blocking activity on the Kv1.3 channel” value (Kv1.3 channel) is on record?
A: weak blocking activity

Q: For `COc1c(Cl)c(C)c(C(C)=O)c(OCCc2ccccn2)c1OCCC(C)c1ccc(F)cc1` (stereo not shown) [Example 7d, 1-[3-Chloro-5-[3-(4-fluoro-phenyl)-butoxy]-4-methoxy-2-methyl-6-(2-pyridin-2-yl-ethoxy)-phenyl]-ethanone], which EC50 (human Kv1.3 ion channel) is on record?
A: < 50 nM

Q: What about the “Selectivity for Kv1.3 over Kv1.1” value (hKv1.1) of the same compound?
A: 45 fold

Q: And the “selectivity for Kv1.3 over Kv1.5” value (hKv1.5)?
A: 37 fold

Q: Which results are given for `COc1c(Cl)c(C)c(C(C)=O)c(OCCN2CCOCC2)c1OCCC(C)c1ccc(F)cc1` (stereo not shown) [Example 8b, 1-[3-Chloro-5-[3-(4-fluoro-phenyl)-butoxy]-4-methoxy-2-methyl-6-(2-morpholin-4-yl-ethoxy)-phenyl]-ethanone]?
A: EC50 (human Kv1.3 ion channel): < 50 nM; Selectivity for Kv1.3 over Kv1.1 (hKv1.1): 33 fold; selectivity for Kv1.3 over Kv1.5 (hKv1.5): 35 fold

Q: For `COc1c(Cl)c(C)c(C(C)=O)c(OCCN(C)C)c1OCCC(C)c1ccc(F)cc1` (stereo not shown) [Example 40, 1-{3-Chloro-6-(2-dimethylamino-ethoxy)-5-[3-(4-fluoro-phenyl)-butoxy]-4-methoxy-2-methyl-phenyl}-ethanone], which EC50 (human Kv1.3 ion channel) is on record?
A: 50 to 150 nM

Q: For `COc1c(Cl)c(C)c(C(C)=O)c(OCCn2ccnc2)c1OCCC(C)c1ccc(F)cc1` (stereo not shown) [Example 41, 1-[3-Chloro-5-[3-(4-fluoro-phenyl)-butoxy]-6-(2-imidazol-1-yl-ethoxy)-4-methoxy-2-methyl-phenyl]-ethanone], which EC50 (human Kv1.3 ion channel) is on record?
A: < 50 nM

Q: With `COc1c(Cl)c(C)c(C(C)=O)c(OCCN2CCOC[C@@H]2C)c1OCCC(C)c1ccc(F)cc1` (stereo partly drawn) [Example 42, 1-{3-Chloro-5-[3-(4-fluoro-phenyl)-butoxy]-4-methoxy-2-methyl-6-[2-((S)-3-methyl-morpholin-4-yl)-ethoxy]-phenyl}-ethanone] as the compound, how does the EC50 (human Kv1.3 ion channel) read?
A: 50 to 150 nM

Q: With `COc1c(C(C)=O)c(O)c(OC)c2occc12` [Khellinone] as the compound, how does the “blocking activity on the Kv1.3 channel” value (Kv1.3 channel) read?
A: weak blocking activity

Q: Which EC50 (human Kv1.3 ion channel) does the source give for `COc1cc(O)c(C(C)=O)c(OCCCCOc2ccccc2)c1` [reference compound] here?
A: 150 to 300 nM

Q: With `CCCc1c(NCC)ccc(C(C)=O)c1OCCCc1ccccc1` [reference compound] as the compound, how does the EC50 (human Kv1.3 ion channel) read?
A: > 300 nM

Q: With `C=CCc1c(NC(C)=O)ccc(C(C)=O)c1OCCCc1ccccc1` [reference compound] as the compound, how does the EC50 (human Kv1.3 ion channel) read?
A: > 300 nM

Q: Which EC50 (human Kv1.3 ion channel) does the source give for `COc1cc(OCCCCOc2ccccc2)c(C(C)=O)c(OCCN2CCOCC2)c1` [reference compound] here?
A: > 300 nM

Q: Which EC50 (human Kv1.3 ion channel) does the source give for `CC(=O)c1c(OCCCCOc2ccccc2)cccc1OCCN1CCOCC1` [reference compound] here?
A: > 300 nM

Q: For `CC(=O)c1c(O)cccc1OCCCCOc1ccccc1` [reference compound], which EC50 (human Kv1.3 ion channel) is on record?
A: > 300 nM

Q: Which EC50 (human Kv1.3 ion channel) does the source give for `CCCC(=O)c1ccc(NC(C)=O)cc1OCCCc1ccccc1` [reference compound] here?
A: > 300 nM

Q: With `CC(=O)Nc1ccc(C(C)=O)c(OCCCc2ccccc2)c1` [reference compound] as the compound, how does the EC50 (human Kv1.3 ion channel) read?
A: > 300 nM

Q: With `CC(=O)c1ccc(N)cc1OCCCc1ccccc1` [reference compound] as the compound, how does the EC50 (human Kv1.3 ion channel) read?
A: > 300 nM

Q: With `COc1ccc(C(C)=O)c(NCCCc2ccccc2)c1` [reference compound] as the compound, how does the EC50 (human Kv1.3 ion channel) read?
A: > 300 nM

Q: Which EC50 (human Kv1.3 ion channel) does the source give for `COc1ccc(C(C)=O)c(NC(=O)CCc2ccccc2)c1` [reference compound] here?
A: > 300 nM
